# “Also recorded” adds a separate entry of the source.
# How the values were obtained:
# Assay type in all cases: in vivo
# [1] = test system: Chenopodium album (CHEAL), Abutilon theophrasti (ABUTH), Setaria viridis (SETVI) and Digitaria sanguinalis (DIGSA); test: Glasshouse weed kill test, nicosulfuron with and without adjuvants; settings: conclusion from Table 3
# Method: The efficacy of the aromatic phosphate esters tricresyl phosphate, Phosflex® 362 (2-ethylhexyl diphenyl phosphate) and triphenyl phosphate were tested in a glasshouse against four weed species using the herbicide nicosulfuron. An agrochemical composition was prepared containing 0.5% v/v of the adjuvant Atplus® 411 F in a track sprayer, and was applied at a volume of 200 litres per hectare. The other adjuvants were tested at a arte of 0.2% v/v. Nicosulfuron was applied at a rate of either 30 or 60 grams of pesticide per hectare to weeds which had been grown to the 1.3 or 1.4 leaf stage. The weed species were Chenopodium album (CHEAL), Abutilon theophrasti (ABUTH), Setaria viridis (SETVI) and Digitaria sanguinalis (DIGSA).
# Each spray test was replicated three times. The efficacy of the herbicide was assessed visually and expressed as a percentage of the leaf area killed. Samples were assessed at time periods of 14 and 21 days following application. The results shown in Table 3 below are mean averages over the two rates of nicosulfuron, three replicates, four weed species and the two assessment timings, and are compared to the efficacy of nicosulfuron in the absence of adjuvant and nicosulfuron in the presence of the known tank mix adjuvant Atplus® 411F.
# Septoria tritici [2] = test: Septoria tritici on wheat plants, cyproconazole with and without phosphate ester adjuvants; settings: conclusion from Table 2
# Septoria tritici [3] = settings: conclusion from Table 1
# Tetranychus urticae = test: Mortality of two spotted spider mite on French bean plants, abamectin with and without phosphate ester; settings: for mortality of Tetranychus urticae, phosphate ester composition without abamectin: 0.14% v/v phosphate ester, no abamectin present; for % mortality of Tetranychus urticae: phosphate ester 0.14% v/v, 10 days, larva and adults averaged, lower side of leaves
# Method: The efficacy of the aromatic phosphate ester Phosflex® 362 (2-ethylhexyl diphenyl phosphate) as an adjuvant in a composition containing abamectin was tested and compared to the efficacy of an abamectin composition without the Phosflex® 362 present, and to the efficacy of an abamectin composition containing triethyl phosphate. The Phosflex® 362 and the triethyl phosphate were present at 0.14% v/v in the abamectin compositions. The surfactants tristyrylphenol ethoxylate phosphate ester, sodium salt and tristyrylphenol ethoxylate were present in all the abamectin compositions tested.
# Two week old French bean (Phaseolus vulgaris) plants were infested with a mixed population of two spotted spider mite Tetranychus urticae. One day after infestation the plants were treated with the test compositions, with a track sprayer from the top with a rate of 200 litres per hectare. Plants were incubated in the greenhouse for 10 days and the evaluation was done on mortality against Larva and Adults, just on the lower side (untreated) of the leaves. Each experiment was replicated twice and the results were averaged. The mortality against Larva and Adults was then averaged.
compound,measurement,setting,value
"CCCCC(CC)COP(=O)(Oc1ccccc1)Oc1ccccc1 (stereo not shown) [Phosflex® 362, 2-ethylhexyldiphenyl phosphate]",efficacy as adjuvant for nicosulfuron (in words),[1],performing particularly well
same,efficacy as adjuvant for cyproconazole (in words),Septoria tritici [2],performed best as an adjuvant out of the compounds tested
same,efficacy as adjuvant for isopyrazam (in words),Septoria tritici [3],more efficacious as an adjuvant than any of the other compounds tested
same,"mortality of Tetranychus urticae, phosphate ester composition without abamectin",Tetranychus urticae,no mortality was observed
same,efficacy as adjuvant for abamectin (in words),Tetranychus urticae; conclusion from Table 7,more effective control of Tetranychus urticae than the treatment containing abamectin with no adjuvant present; also recorded: considerably more effective than the alkyl phosphate ester triethyl phosphate
CCOP(=O)(OCC)OCC [triethyl phosphate],"mortality of Tetranychus urticae, phosphate ester composition without abamectin",Tetranychus urticae,no mortality was observed
abamectin,% mortality of Tetranychus urticae,Tetranychus urticae; 0.8 ppm abamectin,0%
same,% mortality of Tetranychus urticae,Tetranychus urticae; 3 ppm abamectin,20%
same,% mortality of Tetranychus urticae,Tetranychus urticae; 12.5 ppm abamectin,50%
"tricresyl phosphate [tricresylphosphate, reference compound]",efficacy as adjuvant for nicosulfuron (in words),[1],performing particularly well

# Source: patent US20170055533A1, “AROMATIC PHOSPHATE ESTERS AS AGROCHEMICAL FORMULATION COMPONENT” (priority 2011, published 2017)
